Measured values reported in patent US9751887B2, “Imidazo[1,2-b]pyridazine derivatives as kinase inhibitors” (Daiichi Sankyo Company, Limited, priority 2012, dated 2017).

Key:
[1] = system: HCC78 cells having ROS1 fusion gene; test: HCC78 cell growth assay (CellTiter-Glo); type: cell-based; conditions: Homo sapiens, HCC78, 72 h, 72 hours culture, 2% FBS medium, luminescence, four separate measurements; read-out: growth inhibitory effect on HCC78 cells having ROS1 fusion gene IC50
Description: Each compound of the present invention was assayed for its cell growth inhibitory effect using HCC78 cells having ROS1 fusion gene.
The suspension was dispensed at a concentration of 100 μL/well to a 96-well culture plate for cell culture (SUMITOMO BAKELITE, Cat No MS-0096S) (hereinafter, referred to as an assay plate). […] In this context, the final concentration of DMSO was set to 0.4%. Then, the cells were cultured for 72 hours in a CO2 incubator.
CellTiter-Glo Luminescent Cell Viability Assay reagent (Promega, Cat No G7571) was dispensed at a concentration of 100 μL/well to the assay plate. The contents in each well were reacted at room temperature for 10 minutes while stirred using a plate mixer. […] The luminescence intensity of each well was measured using EnVision. The luminescence intensity of each well obtained in four separate measurements was defined as the number of cells. IC50 values were calculated by curve fitting using GraphPad Prism version 4.

[2] = target: T1, ROS1 (Homo sapiens, UniProt P08922); test: ROS1 autophosphorylation inhibitory activity evaluation (ADP-Glo); type: biochemical; conditions: 200 nM inactive ROS1, ATP 1 mM, 25° C. 1.5 hours, ADP generated, four separate measurements
T1 construct: purchased Carna Biosciences 08-163
T1 sequence (P08922 28-2347): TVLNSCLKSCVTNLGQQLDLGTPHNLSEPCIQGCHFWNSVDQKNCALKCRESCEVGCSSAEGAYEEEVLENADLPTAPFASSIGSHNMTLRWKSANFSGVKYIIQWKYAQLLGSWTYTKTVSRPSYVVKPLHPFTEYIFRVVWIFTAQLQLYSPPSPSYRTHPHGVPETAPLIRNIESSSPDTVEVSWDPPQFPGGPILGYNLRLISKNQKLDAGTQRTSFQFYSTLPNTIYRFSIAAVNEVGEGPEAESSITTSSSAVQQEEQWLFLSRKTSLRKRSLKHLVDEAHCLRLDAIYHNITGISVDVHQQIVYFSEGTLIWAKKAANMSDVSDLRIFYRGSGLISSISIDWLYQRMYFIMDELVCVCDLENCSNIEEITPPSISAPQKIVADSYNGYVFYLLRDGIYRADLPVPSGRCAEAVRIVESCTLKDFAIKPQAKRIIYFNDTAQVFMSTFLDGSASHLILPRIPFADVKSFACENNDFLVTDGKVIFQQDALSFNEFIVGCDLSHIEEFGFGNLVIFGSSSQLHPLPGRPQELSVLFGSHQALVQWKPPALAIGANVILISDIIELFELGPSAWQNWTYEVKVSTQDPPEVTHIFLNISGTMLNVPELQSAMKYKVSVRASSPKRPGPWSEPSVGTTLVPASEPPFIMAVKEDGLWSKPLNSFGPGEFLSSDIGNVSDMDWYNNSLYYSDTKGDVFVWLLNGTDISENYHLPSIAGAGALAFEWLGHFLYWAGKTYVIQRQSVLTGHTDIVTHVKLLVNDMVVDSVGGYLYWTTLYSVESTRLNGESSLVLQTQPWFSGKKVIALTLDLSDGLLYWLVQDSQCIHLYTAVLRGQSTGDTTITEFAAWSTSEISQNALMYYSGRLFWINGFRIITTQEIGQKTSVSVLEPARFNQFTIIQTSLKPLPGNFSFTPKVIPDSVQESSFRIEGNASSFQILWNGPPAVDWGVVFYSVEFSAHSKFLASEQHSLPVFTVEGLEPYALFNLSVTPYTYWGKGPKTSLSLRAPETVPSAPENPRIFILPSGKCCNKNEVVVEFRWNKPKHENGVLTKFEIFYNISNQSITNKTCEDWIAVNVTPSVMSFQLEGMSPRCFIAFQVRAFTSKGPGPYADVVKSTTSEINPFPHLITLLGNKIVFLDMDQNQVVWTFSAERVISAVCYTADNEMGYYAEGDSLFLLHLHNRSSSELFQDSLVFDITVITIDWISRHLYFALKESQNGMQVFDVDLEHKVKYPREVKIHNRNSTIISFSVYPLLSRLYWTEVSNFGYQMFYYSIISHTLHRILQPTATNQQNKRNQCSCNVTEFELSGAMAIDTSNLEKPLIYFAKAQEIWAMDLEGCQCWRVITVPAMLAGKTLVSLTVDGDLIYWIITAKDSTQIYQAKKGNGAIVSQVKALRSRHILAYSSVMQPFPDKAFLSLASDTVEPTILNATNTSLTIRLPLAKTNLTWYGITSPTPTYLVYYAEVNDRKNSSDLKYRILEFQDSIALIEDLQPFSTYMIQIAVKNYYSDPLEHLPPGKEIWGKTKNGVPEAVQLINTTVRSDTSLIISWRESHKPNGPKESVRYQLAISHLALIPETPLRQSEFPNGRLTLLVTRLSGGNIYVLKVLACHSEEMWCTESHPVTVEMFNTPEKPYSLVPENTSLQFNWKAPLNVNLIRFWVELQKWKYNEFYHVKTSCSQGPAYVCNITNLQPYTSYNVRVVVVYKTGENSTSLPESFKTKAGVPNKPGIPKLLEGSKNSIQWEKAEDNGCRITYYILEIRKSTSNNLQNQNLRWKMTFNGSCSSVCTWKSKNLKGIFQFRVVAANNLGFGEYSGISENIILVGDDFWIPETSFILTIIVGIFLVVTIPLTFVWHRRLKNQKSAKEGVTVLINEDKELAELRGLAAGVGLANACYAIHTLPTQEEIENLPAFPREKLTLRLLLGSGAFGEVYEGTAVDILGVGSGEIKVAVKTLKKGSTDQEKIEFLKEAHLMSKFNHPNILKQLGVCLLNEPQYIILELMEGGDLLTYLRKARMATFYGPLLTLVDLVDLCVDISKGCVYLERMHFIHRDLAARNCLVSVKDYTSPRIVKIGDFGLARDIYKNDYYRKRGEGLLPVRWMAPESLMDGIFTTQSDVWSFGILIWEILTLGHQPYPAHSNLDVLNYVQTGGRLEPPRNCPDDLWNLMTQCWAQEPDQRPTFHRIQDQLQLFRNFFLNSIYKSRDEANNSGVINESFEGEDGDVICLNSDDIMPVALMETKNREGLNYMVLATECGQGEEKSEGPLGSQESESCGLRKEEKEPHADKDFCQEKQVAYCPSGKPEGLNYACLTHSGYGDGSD
Description: Fifty mM HEPES (pH 7.5), 10 mM MgCl2, 0.01% Brij-58, and 2.5 mM DTT were mixed to prepare an enzymatic reaction solution. […] ATP (final concentration: 1 mM) was further added thereto at a concentration of 2.5 μL/well. The resulting plate was left standing at 25° C. for 1.5 hours to cause enzymatic reaction. After the completion of enzymatic reaction, ADP-Glo Reagent-1 (Promega, V9103) was added thereto at a concentration of 2.5 μL/well, and the plate was left standing at room temperature for 60 minutes. Then, ADP-Glo Reagent-2 (Promega) was added thereto at a concentration of 5 μL/well, and the plate was left standing at room temperature for 60 minutes. The amount of ADP generated by the autophosphorylation of ROS1 was measured using EnVision (PerkinElmer Japan). The amount of ADP generated in four separate measurements was defined as the autophosphorylation intensity of ROS1. IC50 values were calculated by curve fitting using GraphPad Prism version 4 (GraphPad software).

[3] = target: T1, ROS1; test: ROS1 kinase inhibitory activity evaluation (mobility shift, EZ Reader II); type: biochemical; conditions: ROS1 25 pg/μL, FL-Peptide 22 substrate, three separate measurements
Description: Next, a substrate reaction solution was prepared. […] Then, the reaction stop solution was added thereto at a concentration of 40 μL/well. Substrate phosphorylation intensity was measured using EZ Reader II (Caliper Life Sciences).

Structure (SMILES) | IC50 [1] [nM] | IC50 [2] [nM] | IC50 [3] [nM]
CN[C@H]1CC(=O)N(c2ccc(-c3cnc4ccc(O[C@H](C)c5cncc(F)c5)nn34)cc2)C1 [Example 108, (4S)-1-[4-[6-[(1R)-1-(5-Fluoro-3-pyridyl)ethoxy]imidazo[1,2-b]pyridazin-3-yl]phenyl]-4-(methylamino)pyrrolidin-2-one] | 20 to 100 | 20 to 100 | 1 to 10
N[C@H]1CC(=O)N(c2ccc(-c3cnc4ccc(OCc5cccc(F)c5)nn34)cc2)C1 [Example 76, (4S)-4-Amino-1-[4-[6-[(3-fluorophenyl)methoxy]imidazo[1,2-b]pyridazin-3-yl]phenyl]pyrrolidin-2-one] | 20 to 100 | < 20 | < 1
C[C@@H](Oc1ccc2ncc(-c3ccc(N4C[C@@H](N)CC4=O)cc3F)n2n1)c1cncc(F)c1 [Example 110, (4S)-4-Amino-1-[3-fluoro-4-[6-[(1R)-1-(5-fluoro-3-pyridyl)ethoxy]imidazo[1,2-b]pyridazin-3-yl]phenyl]pyrrolidin-2-one] | 20 to 100 | < 20 | 1 to 10
NCC1CC(=O)N(c2ccc(-c3cnc4ccc(OCc5cccc(F)c5)nn34)cc2)C1 (stereo not drawn) [Example 74, 4-(Aminomethyl)-1-[4-[6-[(3-fluorophenyl)methoxy]imidazo[1,2-b]pyridazin-3-yl]phenyl]pyrrolidin-2-one] | 100 to 600 | 100 to 150 | 1 to 10
CNCCOc1ccc(-c2cnc3ccc(N[C@H](C)c4cccc(F)c4)nn23)cn1 [Example 46, N-[(1R)-1-(3-Fluorophenyl)ethyl]-3-[6-[2-(methylamino)ethoxy]-3-pyridyl]imidazo[1,2-b]pyridazin-6-amine] | < 20 | < 20 | < 1
CN(Cc1cccc(F)c1)c1ccc2ncc(-c3ccc(N4C[C@@H](N)CC4=O)c(C#N)c3)n2n1 [Example 131, 2-[(4S)-4-Amino-2-oxopyrrolidin-1-yl]-5-[6-[(3-fluorophenyl)methyl-methylamino]imidazo[1,2-b]pyridazin-3-yl]benzonitrile] | 20 to 100 | < 20 | 1 to 10
CC(Oc1ccc2ncc(-c3ccc(N4C[C@@H](N)CC4=O)cc3)n2n1)c1cc(F)cnc1F (stereo partly drawn) [Example 106] | < 20 | < 20 | < 1
CN[C@H]1CC(=O)N(c2ccc(-c3cnc4ccc(O[C@H](C)c5cccc(F)c5)nn34)cc2)C1 [Example 80, (4S)-1-[4-[6-[(1R)-1-(3-Fluorophenyl)ethoxy]imidazo[1,2-b]pyridazin-3-yl]phenyl]-4-(methylamino)pyrrolidin-2-one] | 20 to 100 | < 20 | < 1
CC(Oc1ccc2ncc(-c3ccc(N4C[C@@H](N)CC4=O)cc3)n2n1)c1cc(F)ccc1-n1nccn1 (stereo partly drawn) [Example 114, (4S)-4-Amino-1-[4-[6-[1-[5-fluoro-2-(triazol-2-yl)phenyl]ethoxy]imidazo[1,2-b]pyridazin-3-yl]phenyl]pyrrolidin-2-one] | 20 to 100 | < 20 | < 1
NC1CC(=O)N(c2ccc(-c3cnc4ccc(OCc5cccc(F)c5)nn34)cc2)C1 (stereo not drawn) [Example 73, 4-Amino-1-[4-[6-[(3-fluorophenyl)methoxy]imidazo[1,2-b]pyridazin-3-yl]phenyl]pyrrolidin-2-one] | 20 to 100 | < 20 | 1 to 10
CN(Cc1cncc(Cl)c1)c1ccc2ncc(-c3ccc(N4C[C@@H](N)CC4=O)cc3)n2n1 [Example 122, (4S)-4-Amino-1-[4-[6-[(5-chloro-3-pyridyl)methyl-methylamino]imidazo[1,2-b]pyridazin-3-yl]phenyl]pyrrolidin-2-one] | 20 to 100 | 20 to 100 | 1 to 10

Next, values leading:

IC50 [1] [nM] | IC50 [2] [nM] | IC50 [3] [nM] | Structure (SMILES)
< 20 | < 20 | < 1 | NC1CC(=O)N(c2ccc(-c3cnc4ccc(NCc5ccccc5)nn34)cc2)C1 (stereo not drawn) [Example 72, 4-Amino-1-[4-[6-(benzylamino)imidazo[1,2-b]pyridazin-3-yl]phenyl]pyrrolidin-2-one]
100 to 600 | 20 to 100 | 1 to 10 | Fc1cccc(COc2ccc3ncc(-c4ccc(OC[C@@H]5CCCN5)cc4)n3n2)c1 [Example 12, 6-[(3-Fluorophenyl)methoxy]-3-[4-[[(2S)-pyrrolidin-2-yl]methoxy]phenyl]imidazo[1,2-b]pyridazine]
20 to 100 | < 20 | < 1 | C[C@@H](Nc1ccc2ncc(-c3ccc(OCCCN)cc3)n2n1)c1cccc(F)c1 [Example 28, 3-[4-(3-Aminopropoxy)phenyl]-N-[(1R)-1-(3-fluorophenyl)ethyl]imidazo[1,2-b]pyridazin-6-amine]
100 to 600 | 20 to 100 | 1 to 10 | C[C@@H](Oc1ccc2ncc(-c3ccc(OCC4CCNCC4)cc3)n2n1)c1cccc(F)c1 [Example 17, 6-[(1R)-1-(3-Fluorophenyl)ethoxy]-3-[4-(4-piperidylmethoxy)phenyl]imidazo[1,2-b]pyridazine]
20 to 100 | < 20 | < 1 | C[C@@H](Nc1ccc2ncc(-c3ccc(OC[C@@H]4CC(F)CN4)cc3)n2n1)c1cccc(F)c1 (stereo in doubt) [Example 33, N-[(1R)-1-(3-Fluorophenyl)ethyl]-3-[4-[[(2S,4S)-4-fluoropyrrolidin-2-yl]methoxy]phenyl]imidazo[1,2-b]pyridazin-6-amine]
< 20 | < 20 | < 1 | C[C@@H](Nc1ccc2ncc(-c3ccc(OC[C@@H]4CCN4)cc3F)n2n1)c1cccc(F)c1 [Example 43, 3-[4-[[(2S)-Azetidin-2-yl]methoxy]-2-fluoro-phenyl]-N-[(1R)-1-(3-fluorophenyl)ethyl]imidazo[1,2-b]pyridazin-6-amine]
20 to 100 | < 20 | 1 to 10 | C[C@@H](Nc1ccc2ncc(-c3cccc(OCCCN)c3)n2n1)c1cccc(F)c1 [Example 68, 3-[3-(3-Aminopropoxy)phenyl]-N-[(1R)-1-(3-fluorophenyl)ethyl]imidazo[1,2-b]pyridazin-6-amine]
< 20 | < 20 | < 1 | C[C@@H](Nc1ccc2ncc(-c3ccc(OC[C@H](N)CO)cc3)n2n1)c1cccc(F)c1 [Example 59, (2R)-2-Amino-3-[4-[6-[[(1R)-1-(3-fluorophenyl)ethyl]amino]imidazo[1,2-b]pyridazin-3-yl]phenoxy]propan-1-ol]
< 20 | < 20 | < 1 | C[C@@H](Nc1ccc2ncc(-c3ccc(OC[C@@H]4CCCN4)c(C#N)c3)n2n1)c1cccc(F)c1 [Example 48, 5-[6-[[(1R)-1-(3-Fluorophenyl)ethyl]amino]imidazo[1,2-b]pyridazin-3-yl]-2-[[(2S)-pyrrolidin-2-yl]methoxy]benzonitrile]
100 to 600 | 20 to 100 | 1 to 10 | NCCOc1ccc(-c2cnc3ccc(OCc4cccc(F)c4)nn23)cc1 [Example 14, 2-[4-[6-[(3-Fluorophenyl)methoxy]imidazo[1,2-b]pyridazin-3-yl]phenoxy]ethanamine]
100 to 600 | 20 to 100 | 1 to 10 | c1ccc(CNc2ccc3ncc(-c4cccc(OC[C@@H]5CCCN5)c4)n3n2)cc1 [Example 2, N-Benzyl-3-[3-[[(2S)-pyrrolidin-2-yl]methoxy]phenyl]imidazo[1,2-b]pyridazin-6-amine]
